From a melting point compilation (Tetko et al.) come the findings set out here.

The structures appear in SMILES notation.

As a reminder, the melting point is the temperature, or range, at which the solid turns liquid. Compound `CC(CN1c2ccccc2Sc2ccccc21)N(C)C` (stereo not given) returned a melting point of 60 °C.
The compound `CC(C)[C@H](NC(=O)OCC1c2ccccc2-c2ccccc21)C(=O)O` showed a melting point of 143 to 147 °C.
`FC(F)(F)c1ccc2c(c1)NCCC2` came in with a melting point of 32 °C.
The result for `O=C(Cl)c1nc2ccccc2s1` reads 150 °C; that for `Cc1c(I)ccnc1Cl`, 107 °C; that for `CC(CC(=O)O)c1ccc(C(=O)O)cc1` (stereo not given), 227 to 229 °C.
Compound `CC(=O)Oc1c(-c2ccccc2)n(C(C)=O)c2cc([N+](=O)[O-])ccc12` showed a melting point of 178 °C.
In the case of `O=[N+]([O-])c1ccc(N=Nc2ccc(O)c3ccccc23)cc1`, the melting point is 275 °C.
`CS(=O)(=O)c1ccc(C(C=O)C=O)c([N+](=O)[O-])c1` came in with a melting point of 213 to 219 °C.
Compound `O=Nc1ccc2c(O)ccc(N=O)c2c1O` returned a melting point of 250 °C.
For `CC(Cc1ccccc1)(C(=O)O)C(=O)O`, the melting point worked out at 132 °C.
In turn, `O=C(O)CC=Cc1ccccc1` had a melting point of 87 °C.
For `CC1=C(C)C(=O)C=CC1=O`, the melting point was found to be 55 °C.
`CC1=C2C3OC(=O)C(C)C3CCC2(C)C=CC1=O` (stereo not given) showed a melting point of 175 °C.
`COc1ccc2ccc(=O)oc2c1CC=C(C)C` registered a melting point of 83.5 °C.
`CC(CO)c1c(O)c(O)c2c(c1O)C(=O)C(=O)C1C(C)(C)CCCC21C` (stereo not given) displayed a melting point of 239 °C.
`Cc1noc(-c2ccc(CO)cc2)n1` returned a melting point of 102 to 104 °C.
As to `O=C(CF)c1ccccc1`, the melting point came to 29 °C.
The result for `C=C(C)C(N)=O` reads 110 °C.
As to `c1ccc2c(c1)nnn2C1CCCCC1`, the melting point was 104 °C.
The compound `Nc1nc(=O)[nH]cc1F` registered a melting point of 296 °C.
The compound `O=C(O)c1ccccc1-n1ccnc1` registered a melting point of 198 to 200 °C.
Take `CC(=O)c1cc(OC(F)(F)F)ccc1O`: the melting point stood at 30 °C.
`CCC(C)Cl` (stereo not given) displayed a melting point of -140 °C.
`CC(=O)Nc1cc(NC(C)=O)c(C=Cc2ccccc2)c([N+](=O)[O-])c1C=Cc1ccccc1` showed a melting point of 276 °C.
Compound `CCOC(=O)C1=C(N)n2nc(C(F)(F)F)nc2NC1c1ccc(Cl)cc1` (stereo not given) yielded a melting point of 198 °C.
Consider `CC(=O)c1c(C)c(C(=O)O)n(C)c1C`, for which the melting point is 135 to 137 °C.
To `O/N=C(\Cc1ccccc1)c1ccc2c3c(cccc13)CC2` belongs 138 °C; to `OC(C(F)(F)F)(C(F)(F)F)C(O)(C(F)(F)F)C(F)(F)F`, 18 to 20 °C.
As for `CCN(CC)C(=S)SC(=S)N(CC)CC`, the melting point was found to be 31 °C.
On to `CC(SCc1ccccc1)C(=O)O` (stereo not given), for which the melting point lay within 79 to 81 °C.
The result for `N#CC1CN(Cc2ccccc2)CN(Cc2ccccc2)C1` reads 80 °C; that for `NC(=O)Cc1ccccc1`, 157 °C.
To `C=CC(=O)OCC(CC)CCCC` (stereo not given) belongs -90 °C; to `O=C(O)CCCCCCCCCCCCCCCCCCCCC(=O)O`, 125 to 127 °C.
Compound `N#CCc1cccc(Cl)c1Cl` showed a melting point of 66 to 69 °C.
To `CCC(C)c1ccc(O)cc1` (stereo not given) belongs 61.5 °C.
To `Cc1ccc(-c2csc(N)n2)cc1` belongs 137 °C; to `O=C(Nc1ccccc1)c1ccccc1I`, 137 °C; to `CCOc1ccc(NC(=O)CC(C)O)cc1` (stereo not given), 160 °C.
In turn, `Clc1cc2c(cc1Cl)Oc1cc(Br)c(Br)cc1O2` returned a melting point of 316 °C.
For `CC1=CC(=O)C(C(=O)OC2CC(C)CCC2C(C)C)C(C)C1C(=O)OC1CC(C)CCC1C(C)C` (stereo not given), the melting point was 185 to 186 °C.
As for `CCCCCCCCOC(=O)CC`, the melting point was -42.6 °C.
`C[Si](C)(C)CCS(=O)(=O)c1ccccc1` registered a melting point of 50 to 53 °C.
Compound `O=C(O)[C@H]1CC[C@H](C(=O)O)CC1` gave a melting point of 312 °C.
As for `OC(c1ccccc1)P(c1ccccc1)c1ccccc1` (stereo not given), the melting point is 157 °C.
Regarding `CCCCOc1cc(C(N)=O)ccc1OC`, the melting point was 150 to 152 °C.
Compound `CCCCCCC(N)C(=O)O` (stereo not given) came in with a melting point of 270 °C.
As for `CC(=O)c1ccc(O)c(C(F)(F)F)c1`, the melting point was 176 °C.
In the case of `CC12CCC(C(=C/O)/C1=N\NC(N)=O)C2(C)C` (stereo not given), the melting point is 205 to 206 °C.
With `CC(C(=O)O)C(C)C(=O)O` (stereo not given), the melting point amounted to 120 °C.
In turn, `O=C(Oc1ccccc1)c1cccc(C(=O)Oc2ccccc2)c1` yielded a melting point of 136 to 139 °C.
To `SC1CCCCC1` belongs -30 °C.
Regarding `CNc1ccncc1`, the melting point came out at 126 °C.
`CC(C)[C@H](NC(=O)OCC1c2ccccc2-c2ccccc21)C(=O)Oc1c(F)c(F)c(F)c(F)c1F`: the melting point lay within 121 to 122 °C.
Compound `CCCCCCCCCCCCCCC(C)C` registered a melting point of 4 °C.
Compound `CC(C)(C)NC(=O)[C@@H]1CC2CCCCC2CN1` (stereo not given in full) displayed a melting point of 115 to 117 °C.
In turn, `O=C(O)c1ccccc1S` showed a melting point of 164 to 169 °C.
Turning to `OC(c1ccc(Cl)cc1)(c1ccc(Cl)cc1)c1ccc(Cl)cc1`, the melting point amounted to 95.5 °C.
The compound `CC(C)OC(=O)C1(S(=O)(=O)c2ccc(Cl)cc2)CC1` yielded a melting point of 89.8 °C.
The result for `N#Cc1ccc(C(c2ccc(C#N)cc2)n2cncn2)cc1` reads 181 °C.
As to `OCc1ccc(N2CCOCC2)nc1`, the melting point lay within 74 to 76 °C.
`CNc1ccccc1C(=O)O` registered a melting point of 180 °C.
The result for `N#C/C(=C\c1cccc(O)c1)c1nc2ccccc2[nH]1` reads 299 to 300 °C; that for `Nc1ccc(Cl)c(C(F)(F)F)c1`, 37 °C; that for `CC(C)(C)OC(=O)Nc1ccco1`, 98 to 100 °C.
Turning to `O=C(O)/C=C/Cl`, the melting point turned out to be 82 °C.
Take `Cc1c2cccc(-c3ccccc3)c2cc2c(-c3ccccc3)cccc12`: the melting point was 177 °C.
Turning to `Clc1cc(Br)ccc1I`, the melting point is 35 to 37 °C.
As to `FC(F)(F)c1ccnc(N2CCCNCC2)n1`, the melting point was in the range of 50 to 51 °C.
The compound `CC(=O)C(Cl)C(C)=O` came in with a melting point of -15 °C.
Turning to `NC(=NO)c1ccc(Cl)cc1`, the melting point lay within 131 to 134 °C.
`COC(=O)c1ccc(C#Cc2ccccc2)o1`: the melting point was 79 to 82 °C.
`O=C1OC(=O)c2c(F)cccc21` registered a melting point of 159 to 163 °C.
To `CC12CCC(C(COC(=O)c3ccc([N+](=O)[O-])cc3)C1)C2(C)C` (stereo not given) belongs 100 °C; to `O=C(Oc1cccc(N=Nc2cccc(OC(=O)c3ccccc3)c2)c1)c1ccccc1`, 180 °C; to `Cc1nc(Nc2ncc(C(=O)Nc3c(C)cccc3Cl)s2)cc(N2CCN(CCO)CC2)n1`, 283 °C.
`COc1cc(-c2coc3cc(O)c(OC)c(O)c3c2=O)cc(O)c1OC`: the melting point stood at 185 °C.
Take `Cc1ccc(S(=O)(=O)N(C)Cc2ccc(N)cc2)cc1`: the melting point worked out at 155 °C.
The compound `Cn1c(=O)c(C(N)=S)cn(-c2ccccc2)c1=O` had a melting point of 229 to 232 °C.
